# Reference: paper PMC7891648, “A simple novel approach for detecting blood–brain barrier permeability using GPCR internalization” (Neuropathology and Applied Neurobiology, 2020)
# Legend:
# [1] = cited from earlier work
# Excerpt: The Arc display several populations of neurons that are pivotal for regulating energy homoeostasis, food intake and cardiovascular functions. Because of this central role at the interface between the brain and the periphery, a few studies have hypothesized that the Arc could share common features with classical CVOs. […] We have therefore reinvestigated this subject using our approach. […] Membrane‐associated SST2 in Arc neurons intern ...
# [2] = Tolerability after acute OCT i.p. injection; assay type: in vivo; conditions: rat and mice models, 2.5 mg/kg i.p.
# [3] = target: T1, SST2 (Rattus norvegicus, UniProt P30680); conditions: P14 rats, 2.5 mg/kg i.p., 45 mins
# Method: Adult mice and post‐natal day 14 (P14) male rats. […] Brains were dissected, post‐fixed in the same fixative overnight at 4°C, cryoprotected, frozen in liquid isopentane at −45°C and sectioned in the coronal plane at a thickness of 30 μm and collected in PBS.
# The SST2 receptor was immunolocalized on brain sections (in vivo models 1‐5), whole embryo sections (in vivo model 5) and DAOY cells (in vitro model). Brain sections were selected at the level of the circumventricular organs (in vivo model 1), at the level of the focused ultrasound‐mediated BBB opening (in vivo model 2), at the level of the ischaemia‐reperfusion lesions (in vivo model 3), at the level of the traumatic brain injury (in vivo model 4) and at the level of the caudal embryonic cortex (in vivo model 5). See Supporting Information for further details.
# [4] = target: T1, SST2; assay: In vivo model 3: juvenile cerebral ischaemia, OCT extravasation detected by SST2 internalization; design: two sensory CVOs in which neurons natively express the SST2; from tissue; host or cells: brain of P14 rats (area postrema, OVLT, arcuate nucleus, cerebral cortex), in vivo; conditions: P14 rats, 2.5 mg/kg i.p., 45 mins
# Method: Ischaemia‐reperfusion. Ischaemia was induced in P14 rats as previously reported. See Supporting Information for further details.
# Cerebral ischaemia. Isoflurane-anaesthetized P14 rats were exposed to proximal left middle cerebral artery electrocoagulation (MCAo) combined with a transient (60 min) double occlusion of common carotid arteries (CCAo). Carotid blood-flow restoration was assessed by release of the carotid clips.
# [5] = system: Human Primary Brain Microvascular Endothelial Cell (hPBMEC) monolayers; assay: Fluorescein permeability of hPBMEC monolayers (tight junction functionality); assay type: in vitro ADME; conditions: hPBMEC monolayer, with 1 M mannitol treatment 30 min, versus basal
# Method: The hPBMECs were cultured as previously described [31]. […] Differentiated hPBMECs with the BBB phenotype (TEER> 1000 Ωxcm^2) were treated or not with 1 M mannitol in serum‐free culture medium for 30 min to temporarily open tight junctions. Then, mannitol solution was removed and replaced by culture medium. Tight junction opening was evaluated with the measurements of fluorescein permeability, a small hydrophilic compound known to cross the BBB via the paracellular route. […] The medium of the abluminal compartment was then collected during a 2‐hour period (n = 3 per condition).
# The experimentation was conducted in compliance with the French legislation, and the protocol was permitted by the French Ministry of Higher Education and Research (CODECOH DC-2014-2229). Brain capillaries were isolated using soft digestion of patient brain tissues and then seeded. Brain primary microvascular endothelial cells were shortly amplified and seeded on 12-well-type Transwell® (Corning, membrane area: 1.12 cm^2) with microporous membranes (pore size: 0.4 µm). Cells were cultured in EBM-2 medium (Lonza, Basel, Switzerland) supplemented with 20% serum and growth factors (Sigma-Aldrich, St. Louis, MO, USA). Transendothelial electrical resistance (TEER) was measured as an integrity marker and to assess cellular barrier tightness.
# [6] = target: T2, SST2 (Mus musculus, UniProt P30875); assay: In vivo model 2: focused ultrasound-mediated BBB disruption, extravasation detected by SST2 internalization or MRI; conditions: after microbubble sonication of the targeted area, i.v.
# T2 construct: The endogenous SST2 was immunolocalized using an extensively characterized rabbit monoclonal antibody; from tissue; host or cells: brain of adult C57Bl/6 mice, P7 OF1 mouse pups and C57Bl/6 embryos (E13.5-E18.5), in vivo
# Method: BBB disruption induced by magnetic resonance imaging (MRI)‐guided focused ultrasound (FUS) (MRgFUS) was performed as previously reported [28].
# Stereological measures of estimated volume in the in vivo model 2 was performed with the Volumest plug‐in [32] in the Fiji distribution of ImageJ [33]. Brightfield images of serial coronal sections separated by 180 μm were collected. The number of serial sections, the thickness of the sections, the sampling interval and pixel‐to‐μm scaling were entered into the Volumest plug‐in. Next, the cortical areas displaying BBB disruption detected by SST2 internalization were manually traced and the volume estimate was calculated in the Volumest plug‐in [32].
# Adult C57Bl/6 mice (n=3) were anaesthetized with isoflurane (1-2% at beginning, then 0.8% during MRI acquisition). The catheter was installed in the tail vein and the head was shaved with a depilatory cream. Mice were then installed on the MRgFUS system (Image Guided Therapy) and the transducer was placed on their head. MR contrast agent (MRCA) (Dotarem, Guerbet, France; 0.1 mL) was injected intravenously outside the MRI tunnel, before the baseline MRI acquisition. Mice were then removed from the MRI tunnel in order to inject the ultrasound contrast agent (UCA) (Sonovue, Bracco, Italy; 0.15 mL). […]
# [7] = cited from earlier work; remark: listed apart in the source
# T1 sequence (P30680 whole entry): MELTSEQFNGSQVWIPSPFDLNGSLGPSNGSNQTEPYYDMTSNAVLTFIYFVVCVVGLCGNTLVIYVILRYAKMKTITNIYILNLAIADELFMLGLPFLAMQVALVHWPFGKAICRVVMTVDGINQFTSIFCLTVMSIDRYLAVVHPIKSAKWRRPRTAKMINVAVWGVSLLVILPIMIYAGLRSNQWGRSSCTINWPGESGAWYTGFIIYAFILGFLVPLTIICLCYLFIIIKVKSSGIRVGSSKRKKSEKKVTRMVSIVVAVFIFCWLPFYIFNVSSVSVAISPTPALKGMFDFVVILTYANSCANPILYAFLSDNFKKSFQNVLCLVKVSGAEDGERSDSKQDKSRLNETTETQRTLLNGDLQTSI
# T2 sequence (P30875 whole entry): as the sequence (P30680 whole entry) above, with L3M, T4S, F8L, I15V, P16S, G168C, A335T counted along it
compound,measurement,setting,value
Cc1cc(-c2ccc(/N=N/c3ccc4c(S(=O)(=O)O)cc(S(=O)(=O)O)c(N)c4c3O)c(C)c2)ccc1/N=N/c1ccc2c(S(=O)(=O)O)cc(S(=O)(=O)O)c(N)c2c1O [Evans blue],dye extravasation in the Arc,[1],extravasated only in the Arc of 24‐hour fasted mice but not in control‐fed mice
"C[C@@H](O)[C@@H]1NC(=O)[C@H](CCCCN)NC(=O)[C@@H](Cc2c[nH]c3ccccc23)NC(=O)[C@H](Cc2ccccc2)NC(=O)[C@@H](NC(=O)[C@H](N)Cc2ccccc2)CSSC[C@@H](C(=O)N[C@H](CO)[C@@H](C)O)NC1=O [OCT, octreotide]",physiological or behavioural parameters after acute i.p. injection until perfusion,[2],did not observe any gross changes in physiological or behavioural parameters
same,SST2 immunoreactivity in AP and OVLT (permeable capillaries),[3],immunoreactivity was confined to intracytoplasmic granules near the nucleus and in proximal dendrites
same,SST2 in arcuate nucleus neurons,[3]; naïve animals,internalized and clustered in TGN‐like structures
same,SST2 internalization around cortical lesion,[4]; 6 h after ischaemia,few neurons with internalized receptors were visible
same,SST2 internalization around cortical lesion,[4]; 12 h after ischaemia,a larger number of neurons with internalized SST2 are localized in a narrow band
same,SST2 internalization around cortical lesion,[4]; 24 h after ischaemia,induced large areas of SST2 internalization around the core of the cortical lesion
O=C1OC2(c3ccc(O)cc3Oc3cc(O)ccc32)c2ccccc21 [fluorescein],increase of fluorescein permeability,[5],600 ± 25%
CNC[C@H](O)[C@@H](O)[C@H](O)[C@H](O)CO.O=C([O-])CN1CCN(CC(=O)[O-])CCN(CC(=O)O)CCN(CC(=O)[O-])CC1.[Gd+3] [gadolinium],Gd extravasation on T1-weighted MRI,[6],Extravasation was evident from the cerebral cortex to deep brain structures
somatostatin,half-life in the circulation,[7],2 to 3 min
